45 compounds from ChEMBL document CHEMBL5030514, “Discovery of Anti-TNBC Agents Targeting PTP1B: Total Synthesis, Structure-Activity Relationship, In Vitro and In Vivo Investigations of Jamunones” (J Med Chem, 2021) can be followed below.

For one assay, the system named is MDA-MB-231. Kind of assay: Antiproliferative activity against human MDA-MB-231 cells measured by MTT assay. The assay is classed as functional, cell-based.
For the next assay, the system named is MCF7. Kind of assay: Antiproliferative activity against human MCF-7 cells measured by MTT assay. It counts as functional, cell-based.

Structures are written as SMILES. Bounds are passed on as bounds.

In the case of `CC/C=C\C/C=C\C/C=C\CCCCCCCc1cc(=O)c2c(O)cc(O)c(C)c2o1`, the IC50 – broadly, the midpoint of a concentration-inhibition curve – turned out to be 6.79 µM in the assay with MDA-MB-231 and 17.5 µM with MCF7.
As to `CCCCCCCCCCCCCCCc1cc(=O)c2c(O)c(C)c(O)cc2o1`, the IC50 in the assay with MDA-MB-231 is 42.8 µM; in the assay on MCF7, 43.2 µM.
Take `CC/C=C\C/C=C\C/C=C\CCCCCCCc1cc(=O)c2c(O)cc(OCOC)cc2o1`: the IC50 in the assay on MDA-MB-231 was determined as 6.79 µM; in the assay with MCF7 it was 17.5 µM.
With `CCCC/C=C\CCCCCCCCCc1cc(=O)c2c(O)cc(OCOC)c(C)c2o1`, the IC50 with MDA-MB-231 was more than 87 µM; in the assay with MCF7 it was more than 67.3 µM.
In the same order, the values of `CCCCC/C=C\C/C=C\CCCCCCCC1(O)CC(=O)c2c(O)c(C)c(O)c(C)c2O1` (stereo not given) are 42.8 µM and 43.2 µM.
For `CCCCCCCCCCCCCCCc1cc(=O)c2c(O)cc(OCOC)c(C)c2o1`, the concentration for half-maximal inhibition (IC50) with MDA-MB-231 was more than 87 µM; with MCF7, more than 67.3 µM.
Consider `CCCCC/C=C\C/C=C\CCCCCCCc1cc(=O)c2c(O)cc(O)c(C)c2o1`, for which the IC50 in the assay with MDA-MB-231 was 6.79 µM; with MCF7, 17.5 µM.
With `CCCCCCCCCCCCCCCC1(O)CC(=O)c2c(O)cc(O)cc2O1` (stereo not given), the IC50 with MDA-MB-231 amounted to 6.79 µM; in the assay with MCF7 it was 17.5 µM.
Regarding `CCCCC/C=C\C/C=C\CCCCCCCc1cc(=O)c2c(O)c(C)c(O)cc2o1`, the IC50 in the assay on MDA-MB-231 was 16.1 µM; with MCF7 it was more than 84.1 µM.
In the same order, the values of `CCCCCCCCCCCCCCCc1cc(=O)c2c(O)c(C)c(OCOC)cc2o1` are more than 87 µM and more than 67.3 µM.
`CC/C=C\C/C=C\C/C=C\CCCCCCCC1(O)CC(=O)c2c(O)cc(O)cc2O1` (stereo not given): the results for the IC50 in the assay on MDA-MB-231 and with MCF7 were 6.79 µM and 17.5 µM, respectively.
On to `CCCCC/C=C\C/C=C\CCCCCCCc1cc(=O)c2c(O)cc(O)cc2o1`, for which the IC50 with MDA-MB-231 was found to be 6.79 µM; in the assay with MCF7 it was 17.5 µM.
In the same order, the values of `CCCC/C=C\CCCCCCCCCc1cc(=O)c2c(O)c(C)c(OCOC)cc2o1` are more than 87 µM and more than 67.3 µM.
In the same order, the values of `CCCC/C=C\CCCCCCCCCc1cc(=O)c2c(O)c(C)c(OCOC)c(C)c2o1` are more than 87 µM and more than 67.3 µM.
For `CCCCC1(O)CC(=O)c2c(O)cc(O)cc2O1` (stereo not given), in that order: more than 87 µM and more than 67.3 µM.
Consider `CCCC/C=C\CCCCCCCCCc1cc(=O)c2c(O)c(C)c(O)cc2o1`, for which the figures for the IC50 in the assay on MDA-MB-231 and in the assay with MCF7 were 42.8 µM and 43.2 µM, respectively.
Consider `CC/C=C\C/C=C\C/C=C\CCCCCCCc1cc(=O)c2c(O)c(C)c(OCOC)c(C)c2o1`, for which the IC50 is 16.1 µM in the assay on MDA-MB-231 and more than 84.1 µM in the assay on MCF7.
On to `CCCCCCCCCCCC1(O)CC(=O)c2c(O)cc(O)cc2O1` (stereo not given), for which the IC50 was 42.8 µM with MDA-MB-231 and 43.2 µM in the assay with MCF7.
Turning to `CCCCC/C=C\C/C=C\CCCCCCCC1(O)CC(=O)c2c(O)cc(OCOC)cc2O1` (stereo not given), the IC50 is 16.1 µM in the assay on MDA-MB-231 and more than 84.1 µM in the assay on MCF7.
In the same order, the values of `CC/C=C\C/C=C\C/C=C\CCCCCCCc1cc(=O)c2c(O)c(C)c(OCOC)cc2o1` are 6.79 µM and 17.5 µM.
For the compound `CCCCCCCCCCCCCCCc1cc(=O)c2c(O)c(C)c(OCOC)c(C)c2o1`, the IC50 in the assay with MDA-MB-231 was more than 87 µM; in the assay with MCF7, more than 67.3 µM.
As for `CC/C=C\C/C=C\C/C=C\CCCCCCCc1cc(=O)c2c(O)c(C)c(O)c(C)c2o1`, the IC50 in the assay on MDA-MB-231 was 6.79 µM; in the assay on MCF7, 17.5 µM.
Take `CCCCC/C=C\C/C=C\CCCCCCCc1cc(=O)c2c(O)cc(OCOC)cc2o1`: the IC50 with MDA-MB-231 was more than 87 µM; in the assay with MCF7, more than 67.3 µM.
For the compound `CC/C=C\C/C=C\C/C=C\CCCCCCCC1(O)CC(=O)c2c(O)c(C)c(O)c(C)c2O1` (stereo not given), the 50% inhibitory concentration (IC50) worked out at 42.8 µM in the assay with MDA-MB-231 and 43.2 µM in the assay with MCF7.
For `CCCCC/C=C\C/C=C\CCCCCCCc1cc(=O)c2c(O)c(C)c(O)c(C)c2o1`, in that order: 16.1 µM and more than 84.1 µM.
In the same order, the values of `CCCCC/C=C\C/C=C\CCCCCCCc1cc(=O)c2c(O)c(C)c(OCOC)c(C)c2o1` are 16.1 µM and more than 84.1 µM.
In the case of `CCCCCCCCCCCCCCCC1(O)CC(=O)c2c(O)cc(OCOC)cc2O1` (stereo not given), the IC50 is more than 87 µM with MDA-MB-231 and more than 67.3 µM in the assay with MCF7.
In the same order, the values of `CCCC/C=C\CCCCCCCCCc1cc(=O)c2c(O)cc(O)c(C)c2o1` are 6.79 µM and 17.5 µM.
For `CCCCC/C=C\C/C=C\CCCCCCCc1cc(=O)c2c(O)cc(OCOC)c(C)c2o1`, the results for the IC50 in the assay with MDA-MB-231 and in the assay on MCF7 were 16.1 µM and more than 84.1 µM, respectively.
In the same order, the values of `CC/C=C\C/C=C\C/C=C\CCCCCCCC1(O)CC(=O)c2c(O)cc(OCOC)cc2O1` (stereo not given) are 6.79 µM and 17.5 µM.
For `CCCCC/C=C\C/C=C\CCCCCCCc1cc(=O)c2c(O)c(C)c(OCOC)cc2o1`, in that order: more than 87 µM and more than 67.3 µM.
In the same order, the values of `CCCC/C=C/CCCCCCCCCC1(O)CC(=O)c2c(O)cc(O)cc2O1` (stereo not given) are 18.7 µM and 33.9 µM.
Consider `CCCCCCCCCCCCCCCC1(O)CC(=O)c2c(O)c(C)c(O)c(C)c2O1` (stereo not given), for which the values for the half-maximal inhibitory concentration (IC50) in the assay with MDA-MB-231 and with MCF7 were 16.1 µM and more than 100 µM, respectively.
`CC/C=C\C/C=C\C/C=C\CCCCCCCc1cc(=O)c2c(O)c(C)c(O)cc2o1`: the IC50 is 6.79 µM in the assay with MDA-MB-231 and 17.5 µM in the assay on MCF7.
Regarding `CCCC/C=C\CCCCCCCCCc1cc(=O)c2c(O)c(C)c(O)c(C)c2o1`, the results for the IC50 in the assay with MDA-MB-231 and in the assay on MCF7 were more than 87 µM and more than 67.3 µM, respectively.
As for `CC/C=C\C/C=C\C/C=C\CCCCCCCc1cc(=O)c2c(O)cc(O)cc2o1`, the half-inhibitory concentration (IC50) with MDA-MB-231 came out at 6.79 µM; in the assay with MCF7, 17.5 µM.
Consider `CCCCC/C=C\C/C=C\CCCCCCCC1(O)CC(=O)c2c(O)cc(O)cc2O1` (stereo not given), for which the results for the IC50 with MDA-MB-231 and in the assay on MCF7 were 6.79 µM and 17.5 µM, respectively.
For `CCCCCCCCCCCCCCCc1cc(=O)c2c(O)cc(O)cc2o1`, in that order: 6.79 µM and 17.5 µM.
For `CC/C=C\C/C=C\C/C=C\CCCCCCCc1cc(=O)c2c(O)cc(OCOC)c(C)c2o1`, the IC50 in the assay with MDA-MB-231 is 6.79 µM; in the assay with MCF7, 17.5 µM.
Regarding `CCCCCCCCCCCCCCCc1cc(=O)c2c(O)cc(O)c(C)c2o1`, the half-inhibitory concentration (IC50) in the assay with MDA-MB-231 is 6.79 µM; in the assay on MCF7, 17.5 µM.
Consider `CCCC/C=C\CCCCCCCCCc1cc(=O)c2c(O)cc(OCOC)cc2o1`, for which the IC50 is more than 87 µM in the assay with MDA-MB-231 and more than 67.3 µM with MCF7.
With `CCCC/C=C\CCCCCCCCCC1(O)CC(=O)c2c(O)cc(OCOC)cc2O1` (stereo not given), the IC50 in the assay with MDA-MB-231 is 42.8 µM; in the assay with MCF7, 43.2 µM.
With `CCCCCCCCCCCCCCCCCCCC1(O)CC(=O)c2c(O)cc(O)cc2O1` (stereo not given), the IC50 in the assay on MDA-MB-231 is more than 87 µM; in the assay with MCF7, more than 67.3 µM.
Take `CCCC/C=C\CCCCCCCCCc1cc(=O)c2c(O)cc(O)cc2o1`: the half-inhibitory concentration (IC50) stood at 6.79 µM in the assay on MDA-MB-231 and 17.5 µM in the assay with MCF7.
For `CCCCCCCCCCCCCCCc1cc(=O)c2c(O)c(C)c(O)c(C)c2o1`, in that order: more than 87 µM and more than 67.3 µM.
